The text below walks through data of publication PMC4490744, “Protective effect of a Protein Epitope Mimetic CCR10 antagonist, POL7085, in a model of allergic eosinophilic airway inflammation” (Respiratory Research, 2015).

Assay [1] concerns OVA-sensitized and challenged Balb/c mice. In words: Immunohistochemistry of CCR10 in the lung, OVA model. In kind it is in vivo, mouse. To be noted: CCR10 immunolabelling. As for the experimental part: Sections (3 μm) of lung tissue were cut, mounted, placed in Sequenza® immunostaining with Coverplate™ (Thermo Scientific Shandon), and antigen retrieval was performed with proteinase K in Tris-EDTA buffer (pH 8; Fluka) for 35 min at 37 °C. The endogenous enzyme was blocked with Dual Endogenous Enzyme Block (Dako Cytomation) and slides were incubated overnight at 4 °C with the primary antibody 1/1000 (goat anti-mouse CCR10 antibody; Capralogics), followed by 30 min at RT with the secondary rabbit anti-goat antibody (Vector) and 30 min at RT with extravidin peroxidase (Sigma-Aldrich).

For assay [2] the test system is unchanged. In words: BAL cytokines by ELISA, OVA model. The assay is classed as in vivo, mouse. To be noted: 24 h after last challenge. The protocol:
Bronchoalveolar lavage (BAL) was performed 24 h after the last OVA challenge as previously described. Mice were anaesthetized i.p. (ketamine 150 mg/kg, xylazine 10 mg/kg). A plastic cannula was inserted in the exposed trachea, and airways were washed with 0.5 mL of 0.9 % NaCl (saline) injected with a 1 mL syringe. This procedure was performed ten times. The initial concentrated supernatant of the two first lavages (2 × 0.5 mL administered, approx. 0.5 mL recovered) was collected for cytokine measurements. The remainder of the BALF was centrifuged (600 g for 5 min, 4 °C), and cell pellets pooled. After lysis of erythrocytes with distilled water followed by osmotic re-equilibration and centrifugation, the cell pellet was suspended in 500 μL of saline and total cell counted on a haemocytometer chamber (Neubauer, PRECISS®). […]
(§1) IL-5, IFN-γ (BD Pharmingen), CCL28 (R&D system) ELISA kits and Th17 Milliplex® (Millipore) were used according to the manufacturer’s instructions. For BALF recovered 24 h after the last OVA challenge, IL-5 and IFN-γ were quantified by ELISA. For lung homogenate, concentrations of IL-4, IL-5, IL-13, IL-17a and IL-17f were quantified by Milliplex® in the supernatants obtained after lung tissue was homogenised with an UltraTurax® and centrifuged at 10,000 g for 10 min at 4 °C.

Assay [3] shares this test system. The assay can be described thus: Lung tissue CCL28 by ELISA, OVA model. The conditions noted are these: POL7085 p < 0.05. The assay is classed as in vivo, mouse. As for the experimental part:
as §1
In general terms: An ELISA detects its analyte on a solid surface through an enzyme-linked reagent.

The test system is the same in assay [4]. In words: Lung CCR3 mRNA by RT-qPCR, OVA model. The assay is classed as in vivo, mouse. The conditions noted are these: 2^ΔΔCt, not significant. As for the experimental part: All procedures were performed according to the manufacturer’s instructions. Lung tissue was homogenised in a Fastprep®, and total RNA extracted with Tri-Reagent® (1 mL/left lung; Euromedex) and purified with mini RNeasy® Kit (Qiagen). RNA pellets were suspended in nuclease-free water (DEPC). RNA concentration and quality were determined in each preparation with a Nanodrop® spectrophotometer.
Reverse transcription was performed on 10 μg/mL of total RNA by the High Capacity cDNA Archive kit® (Life Technologies™) for 10 min at 25 °C and 2 h at 37 °C, and cDNAs were stored at −80 °C until use. Quantitative PCR was performed by real-time fluorescent PCR with TaqMan® Gene Expression Assay in 96 well plate format (Life Technologies™, ABI7000) using TaqMan® Gene Expression Assay primers (Life Technologies™ for HPRT1 (Mm01545399_m1), CCR10 (Mm01292449_m1), CCL28 (Mm00445039_m1) and CCR3 (Mm00515543_s1). To analyse the low expression of CCR10, CCL28 and CCR3, a preamplification was performed with TaqMan® PreAmp Master Mix (Life Technologies™) and TaqMan® Gene Expression Assay (10 min at 95 °C followed by 14 cycles: 15 s at 95 °C and 4 min at 60 °C). Preamplified cDNAs were stored at −80 °C until use and diluted 1/20 with 1X TE buffer for use. […]

For assay [5] the test system is unchanged. The assay can be described thus: BAL total and differential cell counts, OVA model. The assay is classed as in vivo, mouse. To be noted: 24 h after last challenge, POL7085 15 mg/kg or DEX 1 mg/kg i.n. once daily 1 h before challenge, p < 0.001. As for the experimental part: Bronchoalveolar lavage (BAL) was performed 24 h after the last OVA challenge as previously described. Mice were anaesthetized i.p. (ketamine 150 mg/kg, xylazine 10 mg/kg). A plastic cannula was inserted in the exposed trachea, and airways were washed with 0.5 mL of 0.9 % NaCl (saline) injected with a 1 mL syringe. This procedure was performed ten times. The initial concentrated supernatant of the two first lavages (2 × 0.5 mL administered, approx. 0.5 mL recovered) was collected for cytokine measurements. The remainder of the BALF was centrifuged (600 g for 5 min, 4 °C), and cell pellets pooled. After lysis of erythrocytes with distilled water followed by osmotic re-equilibration and centrifugation, the cell pellet was suspended in 500 μL of saline and total cell counted on a haemocytometer chamber (Neubauer, PRECISS®). Cells were cytocentrifuged at 700 rpm for 10 min (Cytospin 4, Thermo Fischer Scientific), and stained with Diff-Quick® (Merck) for differential cell counts performed on at least 400 cells.

Assay [6] shares this test system. In words: Lung histology (haematoxylin-eosin), OVA model. In kind it is in vivo, mouse. To be noted: POL7085 15 mg/kg or DEX 1 mg/kg i.n. As for the experimental part: Lung tissues were fixed in 4 % paraformaldehyde and paraffin-embedded. 6 μm sections were cut, mounted on Superfrost glass slides (Fischer Scientific) and stained with haematoxylin-eosin for light microscopy morphological analysis or periodic acid-Schiff (PAS) staining to determine the extent of mucus production. The area of epithelial cells containing the mucus were measured and expressed relative to the total bronchus perimeter.

The test system is the same in assay [7]. In words: Colorimetric assay of lung collagen, OVA model. The conditions noted are these: lung homogenate, POL7085 p < 0.05, DEX 1 mg/kg p < 0.001.
Assay [8] has the same test system. The assay can be described thus: Airway responsiveness to methacholine, whole body barometric plethysmography. The assay is classed as in vivo, mouse. The conditions noted are these: DEX 1 mg/kg i.n., p < 0.001. As for the experimental part:
Airway responsiveness to aerosolized methacholine (MCh; Sigma-Aldrich, A2251) was measured in conscious mice on day 22 (24 h after the last OVA challenge) by whole body barometric plethysmography (Emka Technologies). Mice were acclimatized in the plethysmograph chamber for 30 min until a stable baseline was obtained, and then exposed to aerosolized saline for 30 s as a control. Mice were then challenged every 20 min with aerosolized MCh at increasing concentrations (0.05, 0.1, 0.2 and 0.3 M) for 30 s, and the enhanced pause (PenH) was recorded for 5 min and used as an index of airway obstruction.

Assay [9] shares this test system. In words: Plasma OVA-specific IgE by ELISA, OVA model. In kind it is in vivo, mouse. The conditions noted are these: D22, ELISA. As for the experimental part:
Plasma IgE levels were determined by ELISA. Microtiter plates were coated overnight at 4 °C with the capture antibody, anti-mouse IgE at 2 μg/well in carbonate buffer, pH 9.5 (BD Pharmingen, clone R35-118).

For assay [10] the test system is unchanged. In words: Colorimetric assay of lung mucus, OVA model. The assay is classed as in vivo, mouse. As for the experimental part: Mucus was measured in lung homogenate by a mucus colorimetric assay: 100 μL samples were mixed with 20 μL acid mucus reagent (0.2 % periodic acid) incubated for 1 h at 37 °C, then 20 μL mucus dye reagent (pararosaniline 1 %, 10 N hydrochloric acid 1 %) was added and samples were incubated for a further 30 min at 37 °C, before optical density measurement at 555 nm.

The test system is the same in assay [11]. In words: Lung homogenate cytokines by Milliplex, OVA model. The conditions noted are these: POL7085 7.5 and 15 mg/kg or DEX 1 mg/kg i.n. The assay is classed as in vivo, mouse. The protocol: as §1

Take `C[C@@H]1C[C@H]2[C@@H]3CCC4=CC(=O)C=C[C@]4(C)[C@@]3(F)[C@@H](O)C[C@]2(C)[C@@]1(O)C(=O)CO` [DEX, dexamethasone]: the “infiltrating inflammatory cells expressing CCR10” value in assay [1] was “clearly reduced”. The “effect on IL-5 level in BAL” value in assay [2] is given as “significantly decreased”. Also, the “effect on lung CCL28 concentration” value in assay [3] is “had no effect on CCL28 levels”. In addition, in assay [4], the “reduction of OVA-induced lung CCR3 mRNA expression” value is reported as 45%. Also, in assay [5], the “inhibition of BAL eosinophil recruitment” value turned out to be 87%, the “inhibition of BAL lymphocyte recruitment” value is recorded as 86% and the “inhibition of BAL neutrophil recruitment” value amounted to 90%. Besides, in assay [6], the “effect on peribronchial and perivascular inflammatory cell infiltrates in lung” value is “substantial reduction of these cellular infiltrates”. Besides, in assay [7], the “reduction of lung collagen levels” value amounted to 64%. Further, the “effect on airway responses to MCh” value in [8] was “significantly decreased airway responses to MCh”. The “effect on plasma OVA-specific IgE levels” value in assay [9] is recorded as “a slight decrease, although non significant”. Further, the “effect on lung mucus (colorimetric assay, lung homogenate)” value in assay [10] is “trend towards reduction of mucus levels (ns)”. In addition, the “effect on levels of IL-4, IL-5 and IL-13 in lung homogenate” value in assay [11] was “significantly decreased”.
